Source: ChEMBL document CHEMBL1909046, “DrugMatrix in vitro pharmacology data”

Experiments:
D(3) dopamine receptor = D(3) dopamine receptor (Homo sapiens, UniProt P35462); assay: DRUGMATRIX: Dopamine D3 radioligand binding (ligand: [3H] Spiperone); assay type: cell membranes, CHO, Membrane; conditions: cho
Melanocortin receptor 4 = Melanocortin receptor 4 (Homo sapiens, UniProt P32245); assay type: cell membranes, Membrane; conditions: hek293; also: in other assays of this panel Not Active means under 50% inhibition at 10 µM
Cathepsin G = biological target: T1, Cathepsin G (Homo sapiens, UniProt P08311); assay type: tissue-based; conditions: neutrophil;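 also: inhibition of Cathepsin G enzyme activity, tested on an AMC-conjugated peptide substrate; in other assays of this panel Not Active means under 50% inhibition at 10 µM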
T1 sequence (P08311 whole entry): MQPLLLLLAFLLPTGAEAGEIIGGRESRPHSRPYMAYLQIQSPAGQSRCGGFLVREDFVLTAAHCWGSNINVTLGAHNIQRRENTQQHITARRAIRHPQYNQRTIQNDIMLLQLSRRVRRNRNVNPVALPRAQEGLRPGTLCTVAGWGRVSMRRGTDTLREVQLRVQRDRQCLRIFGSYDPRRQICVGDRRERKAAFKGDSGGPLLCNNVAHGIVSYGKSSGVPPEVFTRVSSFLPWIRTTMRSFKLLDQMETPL

[1] = biological target: T2, 5-hydroxytryptamine receptor 1A (Rattus norvegicus, UniProt P19327); assay type: cell membranes, CHO-K1, Membrane; conditions: cho-k1; also: in other assays of this panel Not Active means under 50% inhibition at 10 µM
T2 sequence (P19327 whole entry): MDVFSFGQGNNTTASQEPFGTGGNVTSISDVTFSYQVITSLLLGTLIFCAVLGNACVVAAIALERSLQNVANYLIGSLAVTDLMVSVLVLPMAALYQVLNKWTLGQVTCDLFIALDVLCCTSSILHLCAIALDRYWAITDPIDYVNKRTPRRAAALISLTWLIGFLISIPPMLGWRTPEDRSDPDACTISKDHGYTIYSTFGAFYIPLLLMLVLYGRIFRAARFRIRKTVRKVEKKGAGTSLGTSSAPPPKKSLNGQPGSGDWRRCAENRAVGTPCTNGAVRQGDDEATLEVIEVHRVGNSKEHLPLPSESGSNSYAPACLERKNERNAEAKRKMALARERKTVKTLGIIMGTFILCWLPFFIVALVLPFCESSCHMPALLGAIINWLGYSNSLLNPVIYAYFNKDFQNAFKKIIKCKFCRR

[2] = biological target: T3, Alpha-2C adrenergic receptor (Homo sapiens, UniProt P18825); assay: DRUGMATRIX: Adrenergic Alpha-2C radioligand binding (ligand: [3H] MK-912); assay type: cell membranes, Sf9, Membrane; conditions: sf9; also: call rule not given here
T3 sequence (P18825 whole entry): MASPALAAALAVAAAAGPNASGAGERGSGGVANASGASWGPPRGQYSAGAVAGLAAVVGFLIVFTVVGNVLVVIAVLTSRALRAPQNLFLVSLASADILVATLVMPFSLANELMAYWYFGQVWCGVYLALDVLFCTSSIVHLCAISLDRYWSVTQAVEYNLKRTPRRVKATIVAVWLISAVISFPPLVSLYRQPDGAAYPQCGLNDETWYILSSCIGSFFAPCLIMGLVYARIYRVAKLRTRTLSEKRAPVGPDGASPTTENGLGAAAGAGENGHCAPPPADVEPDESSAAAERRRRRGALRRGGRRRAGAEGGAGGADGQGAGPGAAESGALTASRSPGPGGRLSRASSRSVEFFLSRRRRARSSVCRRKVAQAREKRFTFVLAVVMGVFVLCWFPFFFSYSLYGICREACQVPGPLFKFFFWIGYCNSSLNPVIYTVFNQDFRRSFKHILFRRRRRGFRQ

Measured: IC50

D(3) dopamine receptor, sequence (P35462 whole entry): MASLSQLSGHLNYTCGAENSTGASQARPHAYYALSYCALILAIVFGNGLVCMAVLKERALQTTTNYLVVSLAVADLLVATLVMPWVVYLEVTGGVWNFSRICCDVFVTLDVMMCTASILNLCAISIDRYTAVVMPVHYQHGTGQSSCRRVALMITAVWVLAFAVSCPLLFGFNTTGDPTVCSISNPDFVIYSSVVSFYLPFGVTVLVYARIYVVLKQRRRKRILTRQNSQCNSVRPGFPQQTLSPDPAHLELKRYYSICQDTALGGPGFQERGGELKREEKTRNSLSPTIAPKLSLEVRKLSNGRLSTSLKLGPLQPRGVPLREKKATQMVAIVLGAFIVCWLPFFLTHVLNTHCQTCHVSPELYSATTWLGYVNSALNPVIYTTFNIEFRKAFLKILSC
Melanocortin receptor 4, sequence (P32245 whole entry): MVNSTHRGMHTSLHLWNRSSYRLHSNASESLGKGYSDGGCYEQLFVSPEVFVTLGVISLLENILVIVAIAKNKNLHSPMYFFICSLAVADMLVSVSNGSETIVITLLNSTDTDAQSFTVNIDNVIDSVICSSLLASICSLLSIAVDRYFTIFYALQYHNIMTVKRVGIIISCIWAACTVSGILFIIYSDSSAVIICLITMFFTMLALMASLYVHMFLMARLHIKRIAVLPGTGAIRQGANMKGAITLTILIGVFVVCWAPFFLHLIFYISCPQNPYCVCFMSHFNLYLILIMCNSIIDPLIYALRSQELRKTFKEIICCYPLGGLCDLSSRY

CN[C@@H]1[C@H](O)[C@H](NC)[C@H]2O[C@@]3(O)C(=O)C[C@@H](C)O[C@H]3O[C@@H]2[C@H]1O [SPECTINOMYCIN]
Not Active: all assays above

CO[C@H]1C[C@@H]2CC[C@@H](C)[C@@](O)(O2)C(=O)C(=O)N2CCCC[C@H]2C(=O)O[C@H]([C@H](C)C[C@@H]2CC[C@@H](O)[C@H](OC)C2)CC(=O)[C@H](C)/C=C(\C)[C@@H](O)[C@@H](OC)C(=O)[C@H](C)C[C@H](C)/C=C/C=C/C=C/1C [SIROLIMUS]
Not Active: all assays above

O=P(O)(O)C(O)(Cc1cccnc1)P(=O)(O)O [RISEDRONIC ACID]
Not Active: all assays above

COc1ccc(CN2CCNCC2)c(OC)c1OC [TRIMETAZIDINE]
Not Active: all assays above
